From patent US5750354A, “Lipoxin transport system and uses therefor” (priority 1994, dated 1998)
Values joined by “and” are separate entries in the source; they are usually repeats but may differ in a detail not shown here. Equal entries are not always repeated. “Also recorded” adds a separate entry of the source.

Columns and labels:
[1] = test system: unstimulated human lymphocytes; assay: [3H]LXA4 uptake into lymphocytes; type: cell-based; conditions: 0.5 mM DISA, 5 nM LXA4
Experimental: Lymphocvtes: The lymphocyte-rich interface layer was taken at the Ficoll-Hypaque gradient step of the neutrophil purification procedure. Platelets were removed by slow-speed centrifugation (see below) and contaminating monocytes and neutrophils by adherence to plastic Petri dishes for 1 hour at 37 ° C.
(§1) Human red cells, lymphocytes, and platelets were isolated from peripheral blood as described under Methods. Undifferentiated HL-60 cells were grown in culture according to standard protocols. Differentiated HL-60 cells were obtained by exposing cells to 1 μM retinoic acid for 5 days in culture. After harvesting and isolation, all cells were kept in the standard medium for 1 hour at 37° C. prior to assay. […] Results represent the means±SEM of three-four separate experiments for each cell type.

[2] = target: T1, specific lipoxin receptors (Homo sapiens, UniProt P25090); assay: [3H]LXA4 ligand binding to human neutrophils
T1 sequence (P25090 1-351): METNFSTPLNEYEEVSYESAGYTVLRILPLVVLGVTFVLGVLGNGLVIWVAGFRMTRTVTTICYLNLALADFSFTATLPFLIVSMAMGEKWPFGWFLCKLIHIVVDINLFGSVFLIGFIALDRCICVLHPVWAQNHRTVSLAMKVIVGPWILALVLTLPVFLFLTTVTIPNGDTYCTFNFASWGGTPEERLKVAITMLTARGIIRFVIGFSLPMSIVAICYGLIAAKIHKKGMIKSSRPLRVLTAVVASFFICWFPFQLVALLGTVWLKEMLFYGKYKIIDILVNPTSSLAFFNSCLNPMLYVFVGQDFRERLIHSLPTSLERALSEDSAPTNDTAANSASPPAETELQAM
Experimental: (§2) Influx rates were calculated by fitting the data points to a single exponential equation (Eq. 1). Results have been taken from three experiments based upon duplicate determinations. […] Specific binding was taken as the difference between total and non-specific binding. […] Results are from three separate experiments, each performed in triplicate.

[3] = test system: undifferentiated HL-60 cells; assay: [3H]LXA4 uptake into undifferentiated HL-60 cells; type: cell-based, human; conditions: 0.5 mM DISA, 5 nM LXA4
Experimental: (§3) HL-60 Cells: HL-60 cells were seeded into RPMI medium supplemented with 100 U/ml penicillin, 100 μg/ml streptomycin, and 10% fetal calf serum (Hyclone, Logan, Utah) and grown at 37° C. in 250 ml flasks in a 5% CO2 /95% air atmosphere. Cells were induced to differentiate toward a neutrophil-like phenotype by exposure to 1 μM retinoic acid for 5 days.
as §1

human neutrophils [4] = conditions: 500 µM
[5] = test system: retinoic acid-induced HL-60 cells; assay: [3H]LXA4 uptake into retinoic acid-induced HL-60 cells; type: cell-based, human; conditions: 0.5 mM DISA, 5 nM LXA4
Experimental: as §3, §1

[6] = test system: unstimulated human platelets; assay: [3H]LXA4 uptake into platelets; type: cell-based; conditions: 0.5 mM DISA, 5 nM LXA4
Experimental: Platelets: Platelets were purified to homogeneity from acid citrate dextrose-treated blood according to established protocols (Romano, M. and Serhan, C. N. (1992) Biochemistry 31:8269-8277).
as §1

lipoxin transport system [7] = assay: [3H]LXA4 influx into human neutrophils (unidirectional tracer flux); conditions: for final [3H]LXA4 uptake (combined data) / initial [3H]LXA4 influx rate (combined data): combined data: Control, 0.4 mM SITS, 1 mM probenecid, Na+-free medium, high K+ medium; for effect on [3H]LXA4 influx: probenecid 1 mM, SITS 0.4 mM
[8] = test system: unstimulated human erythrocytes; assay: [3H]LXA4 uptake into erythrocytes; type: cell-based; conditions: 0.5 mM DISA, 5 nM LXA4
Experimental: Red Blood Cells (RBC): RBC were obtained directly from the heparinized blood of normal human donors. During repeated (four) washing steps, the uppermost portion of the cell pellets was aspirated and discarded to remove residual minor contamination of buffy coat cells.
as §1

human neutrophils [9] = assay: [3H]LXA4 methyl ester influx into human neutrophils; type: cell-based
Experimental: Incubations were performed at 37° C. in capped, plastic tubes (Falcon Plastics, Oxnard, Calif.) under various experimental conditions (neutrophils 15-20×10^6 /ml). […] At stated intervals, duplicate aliquots of the cell suspensions were layered onto 0.5 ml of silicone oil (Versilube F-5, General Electric Corp., Waterford, N.Y.) contained in 1.5 ml plastic tubes and centrifuged for 1 min at 8,000 g in a microcentrifuge (Beckman Instruments, Fullerton, Calif.).
The aqueous and oil phases were aspirated and discarded. […] Influx is expressed here as fmol/10^6 cells/min whereas flux rates in all previous work from our laboratory (L.S.) have been reported in meq/liter of cell water.min.
as §2

neutrophils = assay: Phagocytosis of opsonized sheep red blood cells by neutrophils; type: cell-based, human; conditions: 100 nM or 1000 nM, pH 7.4, 37° C., 30 minutes
Experimental: Neutrophils were prepared as described in the general methodology and suspended at a concentration of 10×10^6 -15×10^6 cells/ml in Hepes Hanks buffer, pH 7.4, supplemented with 1 mg/ml BSA, 1 mg/ml glucose, 0.5 mM MgCl2 and 1.0 mM CaCl2 --2H2 O.
The sheep red blood cells (SRBCs) were prepared by washing the cells with 1× veronal-buffered saline (VBS), incubating the cells with a 1:500 dilution of rabbit anti-SRBC IgG antibody at 37° C. for 15 minutes, centrifuging the cells at 2000 rpm for 5 minutes at 4° C. and washing the cells twice with 1×VBS. SRBCs were resuspended at a final concentration of 10×10^8 cells/ml.
Each component was pipetted separately to the bottom of a 12×75 mm test tube to allow thorough mixing of the components.
To each 100 μl mixture was added 15 μl of opsonized SRBCs to start the phagocytosis reaction. The tubes were vortexed and placed in a 37° C. incubator for 30 minutes. After 30 minutes, the tubes were placed on ice to stop the reaction.
Non-phagocytosed SRBCs were lysed by adding 1.0 ml of 0.83% NH4 Cl to each tube, with shaking, and centrifuging the tubes quickly at 1500 rpm for 3 minutes. The supernatant was removed and the pellets were resuspended in 30 gl of PBS. The 30 μl solution was placed onto a polylysine-coated microscope slide and after 15 minutes the excess solution was removed from the slide. The cells on the slide were fixed with 1% glutaraldehyde for 5 minutes and then the excess glutaraldehyde was removed. The cells were stained with Giemsa Stain by immersing the slide in the stain for 25 minutes, rinsing the slide with water and allowing the slide to dry overnight.
The slides were examined with a light microscope at 100×power. SRBCs which were phagocytosed by neutrophils were visible as yellow cells within blue-stained neutrophils. The results for each reaction were expressed as a phagocytic index, representing the number of SRBCs phagocytosed per 100 neutrophils. […]

[10] = nM levels; cited from earlier work
protein kinase C (PKC) = conditions: about 10 nM; cited from earlier work
sulfate carrier = conditions: cited from earlier work
lipoxin transport system [11] = assay: Irreversible inhibition of [3H]LXA4 influx after pretreatment of neutrophils with sulfhydryl-reactive agents; type: cell-based, human
Cl-/HCO3- exchanger = conditions: cited from earlier work
[12] = test system: H+ +lactate- cotransporter; conditions: cited from earlier work

O=C(O)c1cc(I)cc(I)c1O [DISA, 3,5-diiodo-salicylic acid]
[3H]LXA4 Uptake Rate in the presence of DISA [1]: 0.0053 ± 0.0036 fmol/10^6 cells/min | effect on binding of lipoxin to specific receptors [2]: not inhibitable | [3H]LXA4 Binding, non-specific, in presence of drug ([2]; 0.5 mM drug, + unlabeled LXA4 0.3 μM): 0.41 ± 0.05 fmol/10^6 cells | [3H]LXA4 Binding, total, in presence of drug ([2]; 0.5 mM drug, no unlabeled LXA4): 1.23 ± 0.08 fmol/10^6 cells | [3H]LXA4 Uptake Rate in the presence of DISA [3]: 0.12 ± 0.02 fmol/10^6 cells/min | efflux final value (relative cell content, combined data set) (human neutrophils [4]): 0.46±0.02 | efflux rate coefficient (combined data set) (human neutrophils [4]): 0.098 ± 0.008 min⁻¹ | [3H]LXA4 Uptake Rate in the presence of DISA [5]: 0.08 ± 0.02 fmol/10^6 cells/min | [3H]LXA4 Uptake Rate in the presence of DISA [6]: -0.0005 ± 0.0015 fmol/10^6 cells/min | inhibition of FMLP-enhanced [3H]LXA4 uptake (lipoxin transport system [7]; 100 nM FMLP + DISA): completely sensitive to inhibition | inhibition of PMA-induced enhancement of [3H]LXA4 influx (lipoxin transport system [7]; 100 nM PMA + DISA): competely sensitive to inhibition | [3H]LXA4 uptake by 1 min of incubation (lipoxin transport system [7]; 0.5 mM DISA): 2.9 fmol/10^6 cells | effect on transport system-mediated component of uptake (lipoxin transport system [7]; 0.5 mM DISA): completely blocks; also recorded: markedly sensitive; also recorded: blocked | slope of straight-line fit of [3H]LXA4 uptake in presence of drug (lipoxin transport system [7]; 0.5 mM DISA, 5 nM LXA4, not distinguishable from zero): 0.0046±0.0051 fmol/10^6 cells/min | cell-associated [3H]LXA4, average of all data points (lipoxin transport system [7]; 0.5 mM DISA, 1-30 min): 2.88 fmol/10^6 cells | inhibition of [3H]LXA4 influx (lipoxin transport system [7]; 0.5 mM drug): > 80% | effect on uptake of [3H]LXA4 (lipoxin transport system [7]; each at 0.2-0.5 mM): inhibited the uptake | IC50 (lipoxin transport system [7]; read-out: K0.5, concentration at which 50% of lipoxin transport is inhibited, drug 0-500 μM, uptake at 10 and 20 min, Michaelis-Menten inhibition kinetics): 12 ± 2 µM | [3H]LXA4 Uptake Rate in the presence of DISA [8]: 0.0019 ± 0.0008 fmol/10^6 cells/min | [3H]LXA4 ME Influx in presence of drug (human neutrophils [9]; 0.5 mM drug): 481 ± 170 fmol/10^6 cells/min | effect of drugs on [3H]LXA4 ME influx (human neutrophils [9]; DISA 0.5 mM, PCP 0.4 mM, mersalyl 0.5 mM): completely resistant

CCCCC[C@H](O)[C@H](O)/C=C/C=C/C=C\C=C\[C@@H](O)CCCC(=O)O [LXB4, lipoxin B4]
effect on neutrophil phagocytosis, phagocytic index (neutrophils): inhibit phagocytosis | vasodilation [10]: elicit prompt vasodilation | effect on PKC activity (protein kinase C (PKC)): enhance

CCCN(CCC)S(=O)(=O)c1ccc(C(=O)O)cc1 [probenecid]
sensitivity of the sulfate carrier (sulfate carrier): very sensitive | final [3H]LXA4 uptake (combined data) (lipoxin transport system [7]; 5 nM LXA4): 7.26±0.26 fmol/10^6 cells | initial [3H]LXA4 influx rate (combined data) (lipoxin transport system [7]; 5 nM LXA4): 0.57±0.09 fmol/10^6 cells/min | effect on [3H]LXA4 influx (lipoxin transport system [7]): no apparent impact; also recorded: not inhibited

O=C(O)c1cc[c]([Hg+])cc1.[OH-] [pHMB, p-hydroxymercuribenzoate]
% Inhibition of Transport (irreversible) (lipoxin transport system [11]): ~ 65% and 66 ± 4% | effect on binding of lipoxin to specific receptors [2]: not inhibitable | effect on Cl-/HCO3- exchange (Cl-/HCO3- exchanger): resistant

CC(=O)Nc1ccc(C=Cc2ccc(N=C=S)cc2S(=O)(=O)O)c(S(=O)(=O)O)c1 [SITS, 4-acetamido-4'-isothiocyanostilbene-2,2'-disulfonic acid]
sensitivity of the sulfate carrier (sulfate carrier): very sensitive | final [3H]LXA4 uptake (combined data) (lipoxin transport system [7]; 5 nM LXA4): 7.26±0.26 fmol/10^6 cells | initial [3H]LXA4 influx rate (combined data) (lipoxin transport system [7]; 5 nM LXA4): 0.57±0.09 fmol/10^6 cells/min | effect on [3H]LXA4 influx (lipoxin transport system [7]): no apparent impact; also recorded: not inhibited

CCN1C(=O)C=CC1=O [NEM, N-ethylmaleimide]
effect on H+ +lactate- cotransport / lactic acid fluxes [12]: completely blocked | effect of SH-reactive compounds on [3H]LXA4 influx (lipoxin transport system [7]; 1 mM NEM, 0.4 mM iodoacetate): lacked efficacy; also recorded: do not inhibit
